Assay results as given in patent US20050119231A1, “Quinolone antibacterial agents” (priority 2003, published 2005).
In brackets after ≈: the same amount, converted by molar mass.

What was measured:
Experiment in all cases: Antibacterial microtitration assay (Test A), MIC
Type in all cases: cell-based
E. coli EC-2549 = settings: Escherichia coli, EC2549; Gram Negative Bacteria; strain EC-2549; read-out: Minimum Inhibitory Concentrations E. coli EC-2549
Protocol: (§1) Test A—Antibacterial Assays
(§2) The compounds of the present invention were tested against an assortment of Gram-negative and Gram-positive organisms using standard microtitration techniques (Cohen et. al., Antimicrob., 1985;28:766; Heifetz, et. al., Antimicrob., 1974;6:124).

M. catarrhalis BC-3531 = settings: Moraxella catarrhalis, BC3531; Gram Negative Bacteria; strain BC-3531; read-out: Minimum Inhibitory Concentrations M. catarrhalis BC-3531
Protocol: as §1, §2

H. influenzae HI-3542 = settings: Haemophilus influenzae, HI3542; Gram Negative Bacteria; strain HI-3542; read-out: Minimum Inhibitory Concentrations H. influenzae HI-3542
Protocol: as §1, §2

S. pneumo SV-1 = settings: Streptococcus pneumoniae, SV1; Gram Positive Bacteria; strain SV-1; read-out: Minimum Inhibitory Concentrations S. pneumo SV-1
Protocol: as §1, §2

S pyogenes C203 = settings: Gram Positive Bacteria; strain C203; read-out: Minimum Inhibitory Concentrations S pyogenes C203
Protocol: as §1, §2

E. faecalis MGH-2 = settings: Enterococcus faecalis, MGH2; Gram Positive Bacteria; strain MGH-2; read-out: Minimum Inhibitory Concentrations E. faecalis MGH-2
Protocol: as §1, §2

S. aureus UC-76 = settings: Staphylococcus aureus, UC76; Gram Positive Bacteria; strain UC-76; read-out: Minimum Inhibitory Concentrations S. aureus UC-76
Protocol: as §1, §2

SMILES | MIC (E. coli EC-2549) [µg/mL] | MIC (M. catarrhalis BC-3531) [µg/mL] | MIC (H. influenzae HI-3542) [µg/mL] | MIC (S. pneumo SV-1) [µg/mL] | MIC (S pyogenes C203) [µg/mL] | MIC (E. faecalis MGH-2) [µg/mL] | MIC (S. aureus UC-76) [µg/mL]
Cc1c(N2CCC(CO)C2)c(F)cc2c(=O)n(N)c(=O)n(C3CC3)c12 (stereo not shown) [drawing 311] | 4 (≈ 11.5 µM) | 1 (≈ 2.87 µM) | 0.5 (≈ 1.44 µM) | – | – | – | –
COc1c(N2CCC(C(O)c3ncco3)C2)c(F)cc2c(=O)n(N)c(=O)n(C3CC3)c12 (stereo not shown) [drawing 312] | 32 (≈ 74.2 µM) | 2 (≈ 4.64 µM) | 2 (≈ 4.64 µM) | – | – | – | –
Cc1c(N2CCC(C(O)c3ncco3)C2)c(F)cc2c(=O)n(N)c(=O)n(C3CC3)c12 (stereo not shown) [drawing 313] | 16 (≈ 38.5 µM) | 2 (≈ 4.81 µM) | 1 (≈ 2.41 µM) | – | – | – | –
COc1c(N2CCC(C(O)C(C)(F)F)C2)c(F)cc2c(=O)n(N)c(=O)n(C3CC3)c12 (stereo not shown) [drawing 314] | 64 (≈ 149 µM) | 8 (≈ 18.7 µM) | 4 (≈ 9.34 µM) | – | – | – | –
COc1c(N2CCC(CCO)C2)c(F)cc2c(=O)n(N)c(=O)n(C3CC3)c12 (stereo not shown) [drawing 315] | 16 (≈ 42.3 µM) | 1 (≈ 2.64 µM) | 2 (≈ 5.29 µM) | – | – | – | –
COc1c(N2CCC(C(O)C3(CO)CC3)C2)c(F)cc2c(=O)n(N)c(=O)n(C3CC3)c12 (stereo not shown) [drawing 316] | 8 (≈ 18.4 µM) | 1 (≈ 2.3 µM) | 1 (≈ 2.3 µM) | – | – | – | –
Cc1c(N2CCC(C(O)CO)C2)c(F)cc2c(=O)n(N)c(=O)n(C3CC3)c12 (stereo not shown) [drawing 317] | 4 (≈ 10.6 µM) | 1 (≈ 2.64 µM) | 0.5 (≈ 1.32 µM) | – | – | – | –
COc1c(N2CCC(C(O)C(F)(F)F)C2)c(F)cc2c(=O)n(N)c(=O)n(C3CC3)c12 (stereo not shown) [drawing 318] | 2 (≈ 4.63 µM) | 0.125 (≈ 0.289 µM) | 0.125 (≈ 0.289 µM) | – | – | – | –
COCC1CCN(c2c(F)cc3c(=O)n(N)c(=O)n(C4CC4)c3c2OC)C1 (stereo not shown) [drawing 319] | 32 (≈ 84.6 µM) | 4 (≈ 10.6 µM) | 4 (≈ 10.6 µM) | – | – | – | –
Cc1c(N2CCC(CO)C2)c(F)cc2c(=O)n(N)c(=O)n(C3CC3)c12 (stereo not shown) [drawing 320] | – | – | – | 1 (≈ 2.87 µM) | 2 (≈ 5.74 µM) | 2 (≈ 5.74 µM) | 0.5 (≈ 1.44 µM)
COc1c(N2CCC(C(O)c3ncco3)C2)c(F)cc2c(=O)n(N)c(=O)n(C3CC3)c12 (stereo not shown) [drawing 321] | – | – | – | 8 (≈ 18.5 µM) | 8 (≈ 18.5 µM) | 8 (≈ 18.5 µM) | 0.5 (≈ 1.16 µM)
Cc1c(N2CCC(C(O)c3ncco3)C2)c(F)cc2c(=O)n(N)c(=O)n(C3CC3)c12 (stereo not shown) [drawing 322] | – | – | – | 4 (≈ 9.63 µM) | 4 (≈ 9.63 µM) | 8 (≈ 19.3 µM) | 1 (≈ 2.41 µM)
COc1c(N2CCC(C(O)C(C)(F)F)C2)c(F)cc2c(=O)n(N)c(=O)n(C3CC3)c12 (stereo not shown) [drawing 323] | – | – | – | 8 (≈ 18.7 µM) | 8 (≈ 18.7 µM) | 16 (≈ 37.3 µM) | 2 (≈ 4.67 µM)
COc1c(N2CCC(CCO)C2)c(F)cc2c(=O)n(N)c(=O)n(C3CC3)c12 (stereo not shown) [drawing 324] | – | – | – | 2 (≈ 5.29 µM) | 4 (≈ 10.6 µM) | 4 (≈ 10.6 µM) | 0.5 (≈ 1.32 µM)
COc1c(N2CCC(C(O)C3(CO)CC3)C2)c(F)cc2c(=O)n(N)c(=O)n(C3CC3)c12 (stereo not shown) [drawing 325] | – | – | – | 4 (≈ 9.21 µM) | 8 (≈ 18.4 µM) | 4 (≈ 9.21 µM) | 0.5 (≈ 1.15 µM)
Cc1c(N2CCC(C(O)CO)C2)c(F)cc2c(=O)n(N)c(=O)n(C3CC3)c12 (stereo not shown) [drawing 326] | – | – | – | 1 (≈ 2.64 µM) | 1 (≈ 2.64 µM) | 2 (≈ 5.29 µM) | 0.25 (≈ 0.661 µM)

SMILES | MIC (E. coli EC-2549) [µg/mL] | MIC (M. catarrhalis BC-3531) [µg/mL] | MIC (H. influenzae HI-3542) [µg/mL] | MIC (S. pneumo SV-1) [µg/mL] | MIC (S pyogenes C203) [µg/mL] | MIC (E. faecalis MGH-2) [µg/mL] | MIC (S. aureus UC-76) [µg/mL]
COc1c(N2CCC(C(O)C(F)(F)F)C2)c(F)cc2c(=O)n(N)c(=O)n(C3CC3)c12 (stereo not shown) [drawing 327] | – | – | – | 0.5 (≈ 1.16 µM) | 1 (≈ 2.31 µM) | 1 (≈ 2.31 µM) | 0.06 (≈ 0.139 µM)
COCC1CCN(c2c(F)cc3c(=O)n(N)c(=O)n(C4CC4)c3c2OC)C1 (stereo not shown) [drawing 328] | – | – | – | 2 (≈ 5.29 µM) | 4 (≈ 10.6 µM) | 4 (≈ 10.6 µM) | 1 (≈ 2.64 µM)
Nn1c(=O)c2cc(F)c(N3C[C@@H](CO)[C@@H](CO)C3)nc2n(C2CC2)c1=O [drawing 330] | 16 (≈ 43.8 µM) | 1 (≈ 2.74 µM) | 0.5 (≈ 1.37 µM) | – | – | – | –
Nn1c(=O)c2cc(F)c(N3C[C@H](CO)[C@@H](CO)C3)nc2n(C2CC2)c1=O [drawing 331] | 32 (≈ 87.6 µM) | 4 (≈ 10.9 µM) | 1 (≈ 2.74 µM) | – | – | – | –
Nn1c(=O)c2cc(F)c(N3C[C@@H](O)[C@@H](O)C3)nc2n(C2CC2)c1=O [drawing 332] | 16 (≈ 47.4 µM) | 2 (≈ 5.93 µM) | 0.5 (≈ 1.48 µM) | – | – | – | –
Nn1c(=O)c2cc(F)c(N3C[C@@H](CCO)[C@@H](CCO)C3)nc2n(C2CC2)c1=O [drawing 333] | 0.125 (≈ 0.318 µM) | 0.06 (≈ 0.153 µM) | 0.015 (≈ 0.0381 µM) | – | – | – | –
Nn1c(=O)c2cc(F)c(N3C[C@H](CO)[C@H](F)C3)nc2n(C2CC2)c1=O [drawing 334] | 4 (≈ 11.3 µM) | 1 (≈ 2.83 µM) | 0.5 (≈ 1.42 µM) | – | – | – | –
Nn1c(=O)c2cc(F)c(N3C[C@@H](CO)[C@@H](CO)C3)nc2n(C2CC2)c1=O [drawing 335] | – | – | – | 2 (≈ 5.47 µM) | 1 (≈ 2.74 µM) | 4 (≈ 10.9 µM) | 0.25 (≈ 0.684 µM)
Nn1c(=O)c2cc(F)c(N3C[C@H](CO)[C@@H](CO)C3)nc2n(C2CC2)c1=O [drawing 336] | – | – | – | 4 (≈ 10.9 µM) | 2 (≈ 5.47 µM) | 8 (≈ 21.9 µM) | 0.5 (≈ 1.37 µM)
Nn1c(=O)c2cc(F)c(N3C[C@@H](O)[C@@H](O)C3)nc2n(C2CC2)c1=O [drawing 337] | – | – | – | 8 (≈ 23.7 µM) | 8 (≈ 23.7 µM) | 8 (≈ 23.7 µM) | 2 (≈ 5.93 µM)
Nn1c(=O)c2cc(F)c(N3C[C@@H](CCO)[C@@H](CCO)C3)nc2n(C2CC2)c1=O [drawing 338] | – | – | – | 0.03 (≈ 0.0763 µM) | 0.03 (≈ 0.0763 µM) | 0.06 (≈ 0.153 µM) | 0.002 (≈ 0.00508 µM)
Nn1c(=O)c2cc(F)c(N3C[C@H](CO)[C@H](F)C3)nc2n(C2CC2)c1=O [drawing 339] | – | – | – | 2 (≈ 5.66 µM) | 4 (≈ 11.3 µM) | 4 (≈ 11.3 µM) | 0.25 (≈ 0.708 µM)
Cc1c(N2C[C@](C)(CO)[C@](C)(CO)C2)c(F)cc2c(=O)n(N)c(=O)n(C3CC3)c12 [drawing 341] | 64 (≈ 157 µM) | 32 (≈ 78.7 µM) | 16 (≈ 39.4 µM) | – | – | – | –
Cc1c(N2C[C@](C)(CO)[C@](C)(CO)C2)c(F)cc2c(=O)n(N)c(=O)n(C3CC3)c12 [drawing 342] | – | – | – | 16 (≈ 39.4 µM) | 32 (≈ 78.7 µM) | 16 (≈ 39.4 µM) | 2 (≈ 4.92 µM)
Cc1c(N2CC3CCC(O)(CO)C3C2)c(F)cc2c(=O)n(N)c(=O)n(C3CC3)c12 (stereo not shown) [drawing 344] | 32 (≈ 79.1 µM) | 4 (≈ 9.89 µM) | 4 (≈ 9.89 µM) | – | – | – | –
Cc1c(N2CC3CCC(O)(CO)C3C2)c(F)cc2c(=O)n(N)c(=O)n(C3CC3)c12 (stereo not shown) [drawing 345] | – | – | – | 8 (≈ 19.8 µM) | 8 (≈ 19.8 µM) | 8 (≈ 19.8 µM) | 1 (≈ 2.47 µM)
